System: BT20 Cell
Experiment: Cancer Cell Lysate Total L-Glutamate Assay
Assay type: cell-based
Settings: Homo sapiens, BT-20, 2 h, total L-glutamate in cell lysate, BT20 cells, 2 hour incubation with test compound
How it was run: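 BT20 and other cancer lines at ~80% confluence were given fresh L-glutamine-containing medium, then treated with serially diluted compound (0.5% DMSO) for 2 hours at 37° C. Washed cells were lysed by freeze-thaw and sonication. Lysate glutamate was measured via glutamate oxidase/HRP/50 μM Amplex Red fluorescence (ex 530-560, em 585 nm); IC50 by four-parameter logistic fit.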

SMILES | IC50
Cn1cnc(CC(=O)Nc2nnc([C@H]3CC[C@@H](Cc4ccc(NC(=O)Cc5ccccn5)nn4)C3)s2)c1 (relative stereo) [Example 128, 2-(1-methyl-1H-imidazol-4-yl)-N-{5-[(cis)-3-({6-[(pyridin-2-ylacetyl)amino]pyridazin-3-yl}methyl)cyclopentyl]-1,3,4-thiadiazol-2-yl}acetamide] | 2 nM
O=C(Cc1ccccn1)Nc1nnc(C2CCC(c3nnc(NC(=O)Cc4ccccn4)s3)CC2)s1 (racemic) [Example 140, N,N′-(cyclohexane-1,4-diyldi-1,3,4-thiadiazole-5,2-diyl)bis[2-(pyridin-2-yl)acetamide]] | 380 nM
O=C(Cc1ccccc1)Nc1nnc(C[C@@H]2CC[C@H](c3nnc(NC(=O)Cc4ccccc4)s3)C2)s1 (single isomer, unassigned) [Example 8] | 1.4 nM
O=C(Cc1ccccn1)Nc1ccc(CC2CCC(c3nnc(NC(=O)Cc4ccccn4)s3)C2)nn1 (racemic) [Example 70, (rac)-2-(pyridin-2-yl)-N-{5-[(cis)-3-({6-[(pyridin-2-ylacetyl)amino]pyridazin-3-yl}methyl)cyclopentyl]-1,3,4-thiadiazol-2-yl}acetamide] | 0.2 nM
O=C(Cc1ccccn1)Nc1nnc(CC2CCC(c3nnc(Nc4ncccn4)s3)C2)s1 (racemic) [Example 83, (rac)-2-(pyridin-2-yl)-N-[5-({(cis)-3-[5-(pyrimidin-2-ylamino)-1,3,4-thiadiazol-2-yl]cyclopentyl}methyl)-1,3,4-thiadiazol-2-yl]acetamide] | 2.4 nM
O=C(Cc1ccccc1)Nc1ccc(C[C@@H]2CC[C@H](c3nnc(NC(=O)Cc4ccccn4)s3)C2)nn1 (single isomer, unassigned) [Example 82, 2-phenyl-N-(6-{[(cis)-3-{5-[(pyridin-2-ylacetyl)amino]-1,3,4-thiadiazol-2-yl}cyclopentyl]methyl}pyridazin-3-yl)acetamide] | 0.1 nM
Cc1ccc(CC(=O)Nc2nnc(C[C@H]3C[C@@H](c4nnc(NC(=O)Cc5ccccn5)s4)C3)s2)nc1 (single isomer, unassigned) [Example 111, 2-(5-methylpyridin-2-yl)-N-{5-[(cis-3-{5-[(pyridin-2-ylacetyl)amino]-1,3,4-thiadiazol-2-yl}cyclobutyl)methyl]-1,3,4-thiadiazol-2-yl}acetamide] | 1.2 nM
CC(=O)Nc1nnc(C[C@H]2CC[C@@H](c3nnc(NC(=O)Cc4cncnc4)s3)C2)s1 (single isomer, unassigned) [Example 59, N-{5-[(cis)-3-{[5-(acetylamino)-1,3,4-thiadiazol-2-yl]methyl}cyclopentyl]-1,3,4-thiadiazol-2-yl}-2-(pyrimidin-5-yl)acetamide] | 7760 nM
O=C(Cc1ccccn1)Nc1nnc(C2CCC(c3nnc(NC(=O)Cc4ccccn4)s3)C2)s1 (racemic) [Example 138, N,N′-[cyclopentane-1,3-diyldi-1,3,4-thiadiazole-5,2-diyl]bis[2-(pyridin-2-yl)acetamide]] | 120 nM
CC(=O)Nc1nnc([C@H]2CC3(C[C@H](c4nnc(NC(C)=O)s4)C3)C2)s1 (single isomer, unassigned) [Example 93, N,N′-(spiro[3.3]heptane-2,6-diyldi-1,3,4-thiadiazole-5,2-diyl)diacetamide] | 10.4 nM
CC(=O)Nc1nnc(C2CCC(Cc3nnc(N)s3)C2)s1 (racemic) [Example 42, (rac)-N-(5-{(cis)-3-[(5-amino-1,3,4-thiadiazol-2-yl)methyl]cyclopentyl}-1,3,4-thiadiazol-2-yl)acetamide] | 2370 nM
COCCC(=O)Nc1nnc([C@@H]2CC[C@H](Cc3ccc(NC(=O)Cc4ccccn4)nn3)C2)s1 (single isomer, unassigned) [Example 121, 3-methoxy-N-{5-[(cis)-3-({6-[(pyridin-2-ylacetyl)amino]pyridazin-3-yl}methyl)cyclopentyl]-1,3,4-thiadiazol-2-yl}propanamide] | 4 nM
O=C(Cc1ccccn1)Nc1nnc(C[C@@H]2CC[C@H](c3nnc(Nc4ncccn4)s3)C2)s1 (single isomer, unassigned) [Example 84, 2-(pyridin-2-yl)-N-[5-({(cis)-3-[5-(pyrimidin-2-ylamino)-1,3,4-thiadiazol-2-yl]cyclopentyl}methyl)-1,3,4-thiadiazol-2-yl]acetamide] | 0.5 nM
CCNc1nnc([C@@H]2CC[C@H](Cc3ccc(NC(=O)Cc4ccccn4)nn3)C2)s1 (single isomer, unassigned) [Example 101, N-[6-({(cis)-3-[5-(ethylamino)-1,3,4-thiadiazol-2-yl]cyclopentyl}methyl)pyridazin-3-yl]-2-(pyridin-2-yl)acetamide] | 339 nM
C[C@@H](C(=O)Nc1nnc(C[C@H]2CC[C@@H](c3nnc(NC(=O)[C@H](C)c4cccnc4)s3)C2)s1)c1cccnc1 (single isomer, unassigned) [Example 36, 2-(pyridin-3-yl)-N-(5-{[(cis)-3-(5-{[2-(pyridin-3-yl)propanoyl]amino}-1,3,4-thiadiazol-2-yl)cyclopentyl]methyl}-1,3,4-thiadiazol-2-yl)propanamide] | 284 nM
O=C(Cc1ccccn1)Nc1nnc(CC2CCC(c3nnc(Nc4cnccn4)s3)C2)s1 (racemic) [Example 87, (rac)-N-[5-({(cis)-3-[5-(pyrazin-2-ylamino)-1,3,4-thiadiazol-2-yl]cyclopentyl}methyl)-1,3,4-thiadiazol-2-yl]-2-(pyridin-2-yl)acetamide] | 7.5 nM
CC(=O)Nc1nnc([C@@H]2CC[C@H](Cc3nnc(NC(=O)c4ccccc4F)s3)C2)s1 (racemic) [Example 148, (rac)-N-[5-({(cis)-3-[5-(acetylamino)-1,3,4-thiadiazol-2-yl]cyclopentyl}methyl)-1,3,4-thiadiazol-2-yl]-2-fluorobenzamide] | 12.6 nM
O=C(Cc1ccccn1)Nc1ccc(C[C@H]2CC[C@@H](c3nnc(Nc4ccccn4)s3)C2)nn1 (single isomer, unassigned) [Example 74, 2-(pyridin-2-yl)-N-[6-({(cis)-3-[5-(pyridin-2-ylamino)-1,3,4-thiadiazol-2-yl]cyclopentyl}methyl)pyridazin-3-yl]acetamide] | 3.4 nM
CC(C)(C)C(=O)Nc1nnc(C[C@H]2CC[C@@H](c3nnc(NC(=O)C(C)(C)C)s3)C2)s1 (single isomer, unassigned) [Example 28, N-(5-{[(cis)-3-{5-[(2,2-dimethylpropanoyl)amino]-1,3,4-thiadiazol-2-yl}cyclopentyl]methyl}-1,3,4-thiadiazol-2-yl)-2,2-dimethylpropanamide] | 3020 nM
O=C(Cn1cccn1)Nc1nnc(C[C@H]2CC[C@@H](c3nnc(NC(=O)Cc4ccccn4)s3)C2)s1 (racemic) [Example 142, (rac)-2-(1H-pyrazol-1-yl)-N-(5-{[(cis)-3-{5-[(pyridin-2-ylacetyl)amino]-1,3,4-thiadiazol-2-yl}cyclopentyl]methyl}-1,3,4-thiadiazol-2-yl)acetamide] | 13.2 nM
C[C@H](C(=O)Nc1nnc([C@@H]2CC[C@H](Cc3nnc(NC(=O)[C@H](C)c4cccnc4)s3)C2)s1)c1cccnc1 (single isomer, unassigned) [Example 31, 2-(pyridin-3-yl)-N-(5-{[(cis)-3-(5-{[2-(pyridin-3-yl)propanoyl]amino}-1,3,4-thiadiazol-2-yl)cyclopentyl]methyl}-1,3,4-thiadiazol-2-yl)propanamide] | 639 nM
O=C(Cc1ccccn1)Nc1nnc(C[C@H]2C[C@H](c3nnc(NC(=O)Cc4ccccn4)s3)C2)s1 (single isomer, unassigned) [Example 23, 2-(pyridin-2-yl)-N-{5-[(trans-3-{5-[(pyridin-2-ylacetyl)amino]-1,3,4-thiadiazol-2-yl}cyclobutyl)methyl]-1,3,4-thiadiazol-2-yl}acetamide] | 9.9 nM
CC(C)C(=O)Nc1ccc([C@H]2C[C@@H](Cc3nnc(NC(=O)Cc4ccccn4)s3)C2)nn1 (single isomer, unassigned) [Example 125, 2-methyl-N-{6-[cis-3-({5-[(pyridin-2-ylacetyl)amino]-1,3,4-thiadiazol-2-yl}methyl)cyclobutyl]pyridazin-3-yl}propanamide] | 3.1 nM
O=C(CCn1cccn1)Nc1nnc(C[C@H]2CC[C@@H](c3nnc(NC(=O)Cc4ccccn4)s3)C2)s1 (racemic) [Example 143, (rac)-3-(1H-pyrazol-1-yl)-N-(5-{[(cis)-3-{5-[(pyridin-2-ylacetyl)amino]-1,3,4-thiadiazol-2-yl}cyclopentyl]methyl}-1,3,4-thiadiazol-2-yl)propanamide] | 4.2 nM
CC(=O)Nc1nnc(C[C@H]2CC[C@@H](c3nnc(NC(C)=O)s3)C2)s1 (single isomer, unassigned) [Example 7] | 3360 nM
CC(=O)Nc1nnc(C[C@H]2CC[C@@H](c3nnc(NC(=O)Cc4ccccc4)s3)C2)s1 (single isomer, unassigned) [Example 45, N-{5-[(cis)-3-{[5-(acetylamino)-1,3,4-thiadiazol-2-yl]methyl}cyclopentyl]-1,3,4-thiadiazol-2-yl}-2-phenylacetamide] | 295 nM
O=C(Cc1ccccc1)Nc1ccc(C[C@H]2CC[C@@H](c3nnc(NC(=O)Cc4ccccn4)s3)C2)nn1 (single isomer, unassigned) [Example 81, 2-phenyl-N-(6-{[(cis)-3-{5-[(pyridin-2-ylacetyl)amino]-1,3,4-thiadiazol-2-yl}cyclopentyl]methyl}pyridazin-3-yl)acetamide] | 4.5 nM

Same assay, conditions: total L-glutamate in cell lysate, BT20 cells, 2 hour incubation with test compound

SMILES | IC50
Cn1ccc(CC(=O)Nc2nnc([C@H]3CC4(C[C@H](c5nnc(NC(=O)Cc6ccn(C)n6)s5)C4)C3)s2)n1 (stereo partly shown) [Example 98, N,N′-(spiro[3.3]heptane-2,6-diyldi-1,3,4-thiadiazole-5,2-diyl)bis[2-(1-methyl-1H-pyrazol-3-yl)acetamide]] | 0.5 nM
